Data from ChEMBL document CHEMBL1201862, “PubChem BioAssay data set” (2004).
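96-well plates; 48 h exposure; 5 concentrations. Endpoints by linear interpolation between flanking doses. Not reached: highest tested concentration assigned. GI50 = concentration required for 50% inhibition of growth.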 Calls of active or inactive are those of the source. Cut-off read from the data, not from the text of the source: active = GI50 up to about 1.1 µM and inactive = higher.

Assays:
Experiment in all cases: NCI tumour cell line growth inhibition, 48 h
SR = system: SR
KM12 = system: KM12
HOP-18 = system: HOP-18
DLD-1 = system: DLD-1
M14 = system: M14
LOX IMVI = system: LOX IMVI
UACC-257 = system: UACC-257
A549 = system: A549
SK-MEL-5 = system: SK-MEL-5
HCT-116 = system: HCT-116
M19-MEL = system: M19-MEL
SNB-19 = system: SNB-19
SNB-78 = system: SNB-78
MDA-N = system: MDA-N
T47D = system: T47D
PC-3 = system: PC-3
NCI/ADR-RES = system: NCI/ADR-RES
DMS-273 = system: DMS-273
Hs-578T = system: Hs-578T
786-0 = system: 786-0

Measured: GI50

COCCOCOC(C)(C)[C@H](CCO)O[Si](c1ccccc1)(c1ccccc1)C(C)(C)C
inactive: SR 3.25 µM | KM12 11.5 µM | HOP-18 17.5 µM | DLD-1 9.64 µM | M14 9.89 µM | LOX IMVI 8.36 µM | UACC-257 8.77 µM | A549 6.32 µM | SK-MEL-5 13.4 µM | HCT-116 3.67 µM | M19-MEL 11.7 µM | SNB-19 13.2 µM | SNB-78 16.3 µM

CCCCN(CCCC)c1ccc(/N=N/c2ccc(S(=O)(=O)O)cc2)cc1
inactive: MDA-N 52.2 µM | KM12 12.8 µM | M14 > 100 µM | LOX IMVI 18.9 µM | T47D 25.5 µM | UACC-257 94.4 µM | PC-3 25.8 µM | A549 39.8 µM | SK-MEL-5 16.2 µM | NCI/ADR-RES 24.4 µM | HCT-116 15.6 µM | SNB-19 75.9 µM

O=C(NN1C(=O)CS(=O)(=O)C1c1ccc(C(F)(F)F)cc1)c1ccncc1 (configuration not stated)
inactive: SR > 100 µM | KM12 > 100 µM | HOP-18 > 100 µM | DLD-1 > 100 µM | M14 > 100 µM | LOX IMVI > 100 µM | UACC-257 > 100 µM | A549 > 100 µM | SK-MEL-5 > 100 µM | DMS-273 > 100 µM | HCT-116 > 100 µM | SNB-19 > 100 µM | SNB-78 > 100 µM

CCOC(=O)C1=CC(C)(C(=O)OCC)Nc2c(nc(OC)n(C)c2=O)N1 (configuration not stated)
inactive: MDA-N > 10 µM | Hs-578T > 10 µM | KM12 > 10 µM | 786-0 > 10 µM | M14 > 10 µM | LOX IMVI > 10 µM | T47D > 10 µM | UACC-257 > 10 µM | PC-3 > 10 µM | A549 > 10 µM | SK-MEL-5 > 10 µM | NCI/ADR-RES > 10 µM | HCT-116 > 10 µM | SNB-19 > 10 µM

CCOC(=O)c1c(SC(=O)c2ccc(Cl)cc2)n(-c2ccccc2)c(=S)n(-c2ccccc2)c1=O
inactive: MDA-N > 100 µM | Hs-578T > 100 µM | SR > 100 µM | KM12 > 100 µM | 786-0 > 100 µM | M14 > 100 µM | LOX IMVI > 100 µM | T47D > 100 µM | UACC-257 > 100 µM | PC-3 > 100 µM | A549 > 100 µM | NCI/ADR-RES > 100 µM | HCT-116 > 100 µM | SNB-19 > 100 µM

O=C(Nc1nccs1)c1cc(C2=CC=CC([N+](=O)[O-])C=C2)nc(S)n1 (configuration not stated)
inactive: SR > 100 µM | KM12 > 100 µM | HOP-18 > 100 µM | 786-0 > 100 µM | M14 > 100 µM | LOX IMVI > 100 µM | UACC-257 > 100 µM | A549 > 100 µM | SK-MEL-5 > 100 µM | DMS-273 > 100 µM | HCT-116 > 100 µM | M19-MEL > 100 µM | SNB-19 > 100 µM | SNB-78 > 100 µM

CN1CCN(Cn2nc(COc3ccc(Cl)cc3)n(/N=C/c3ccc(-c4ccc(Cl)cc4Cl)o3)c2=S)CC1
inactive: MDA-N 4.02 µM | Hs-578T 3.72 µM | SR 2.63 µM | KM12 3.18 µM | 786-0 5.12 µM | LOX IMVI 5.57 µM | T47D 6.64 µM | UACC-257 17.6 µM | PC-3 11.2 µM | SK-MEL-5 14.8 µM | NCI/ADR-RES 20.5 µM | HCT-116 13.4 µM

CC1(C)N/C(=C\C=O)C(C)(C)N1O
inactive: MDA-N > 100 µM | Hs-578T > 100 µM | SR > 100 µM | KM12 > 100 µM | M14 > 100 µM | LOX IMVI > 100 µM | UACC-257 > 100 µM | PC-3 > 100 µM | A549 > 100 µM | SK-MEL-5 > 100 µM | NCI/ADR-RES > 100 µM | HCT-116 > 100 µM | SNB-19 > 100 µM

CN1C(=O)NC(=O)/C(=C\Nc2ncccn2)C1=O
inactive: MDA-N > 100 µM | Hs-578T > 100 µM | KM12 > 100 µM | 786-0 > 100 µM | M14 > 100 µM | LOX IMVI > 100 µM | T47D > 100 µM | UACC-257 > 100 µM | PC-3 > 100 µM | A549 > 100 µM | SK-MEL-5 > 100 µM | NCI/ADR-RES > 100 µM | HCT-116 > 100 µM | SNB-19 > 100 µM

O=C(OC(=O)n1ccc2ccccc21)n1ccc2ccccc21
inactive: KM12 > 100 µM | HOP-18 > 100 µM | DLD-1 > 100 µM | LOX IMVI > 100 µM | UACC-257 > 100 µM | A549 > 100 µM | SK-MEL-5 > 100 µM | NCI/ADR-RES > 100 µM | DMS-273 > 100 µM | HCT-116 > 100 µM | M19-MEL > 100 µM | SNB-19 > 100 µM | SNB-78 > 100 µM

COc1ccc(-c2c(C#N)c(NC(=S)NC(=O)c3ccccc3)nc3c2CCCC3)cc1OC
inactive: MDA-N 65.3 µM | Hs-578T 33.3 µM | SR 59.2 µM | KM12 > 100 µM | M14 75.7 µM | LOX IMVI 49.7 µM | T47D 14.9 µM | UACC-257 46.6 µM | PC-3 46.2 µM | A549 52.4 µM | SK-MEL-5 34.6 µM | NCI/ADR-RES 56.4 µM | HCT-116 > 100 µM | SNB-19 68.2 µM

CC1(C)CCc2ccc(OCCC(=O)O)cc2O1
inactive: SR > 100 µM | KM12 > 100 µM | DLD-1 > 100 µM | M14 > 100 µM | LOX IMVI > 100 µM | A549 > 100 µM | SK-MEL-5 > 100 µM | DMS-273 > 100 µM | HCT-116 > 100 µM | M19-MEL > 100 µM | SNB-78 > 100 µM

CCOC(=O)/C=C(/C)Nc1nc2c(c(C(=O)OC)c1C#N)CCCC2
inactive: MDA-N > 100 µM | Hs-578T > 100 µM | SR > 100 µM | KM12 > 100 µM | 786-0 > 100 µM | M14 > 100 µM | LOX IMVI > 100 µM | T47D > 100 µM | UACC-257 > 100 µM | PC-3 > 100 µM | A549 > 100 µM | SK-MEL-5 > 100 µM | NCI/ADR-RES > 100 µM | HCT-116 > 100 µM | SNB-19 > 100 µM

CCOc1cc(C(=O)O)c2c(ccc3ccc(OC)c(OC)c32)c1OC
inactive: MDA-N > 100 µM | Hs-578T > 100 µM | SR > 100 µM | KM12 > 100 µM | 786-0 > 100 µM | M14 > 100 µM | LOX IMVI > 100 µM | T47D > 100 µM | UACC-257 > 100 µM | PC-3 > 100 µM | A549 > 100 µM | SK-MEL-5 > 100 µM | NCI/ADR-RES > 100 µM | HCT-116 > 100 µM | SNB-19 > 100 µM
